Paper PMC10611578, “Aβ1-6A2V(D) peptide, effective on Aβ aggregation, inhibits tau misfolding and protects the brain after traumatic brain injury” (Molecular Psychiatry, 2023)
Square brackets hold non-standard residues; d marks the D form. Peptide text beside a SMILES is read from it.

Key:
[1] = system: insoluble tau (P301L mouse brain homogenate); test: Detergent insolubility assay of tau in P301L brain lysate; format: biochemical, human tau with P301L mutation, JNPL3 mice; details: 50 µM, 2 h at 25 °C, PBS pH 7.4; mean ± SD, N = 4-5
[2] = system: abnormal tau in WT TBI mouse brain homogenate; C. elegans; test: Locomotor activity of C. elegans exposed to brain homogenate of WT TBI mice 12 months post-injury; format: in vivo, Caenorhabditis elegans (Bristol N2); details: 50 µM peptide, pericontusional tissue 12 months post-injury, 30 µg protein/100 worms/100 µL, 7 days after treatment; N = 30
Experimental: Bristol N2 nematodes were obtained from the Caenorhabditis elegans Genetic Center (CGC, University of Minnesota, Minneapolis, MN, USA) and propagated at 20 °C on solid Nematode Growth Medium (NGM) seeded with E. coli OP50 (CGC) for food. We used the bleaching technique to prepare age-synchronized animals. C. elegans at the first larval stage were then transferred to fresh NGM plates and grown at 20 °C. At the L3-L4 larval stage, nematodes were collected with M9 buffer, centrifuged, and washed twice with 10 mM PBS (pH 7.4) to eliminate bacteria. […] Homogenates from naive or sham mice were administered to worms as controls for 3xTg-AD and aged WT TBI mice, respectively ((30 µg protein/100 worms/100 µL 10 mM PBS, pH 7.4). As an additional negative control, 10 mM PBS, pH 7.4 (100 worms/100 µL) was administered to nematodes. Worms were then plated onto NGM plates seeded with OP50 E. coli, grown at 20 °C, and transferred every day to new NGM plates seeded with E. coli to avoid overlapping generations. The locomotor activity of nematodes was scored 7 days after the treatment in blind conditions and expressed as the body bends/min [26]. […]

[3] = system: tau (P301L mouse brain homogenate), proteinase K; test: Proteolysis of tau in P301L brain homogenate; format: biochemical, human tau with P301L mutation, JNPL3 mice; details: 50 µM Aβ1-6A2V-TAT(D), P301L brain homogenate 30 µg protein/100 µL, 30 min at 37 °C with proteinase K (2.5–10 µg/ml)

SMILES: CC(C)[C@@H](NC(=O)[C@H](N)CC(=O)O)C(=O)N[C@H](CCC(=O)O)C(=O)N[C@H](Cc1ccccc1)C(=O)N[C@H](CCCNC(=N)N)C(=O)N[C@H](Cc1c[nH]cn1)C(=O)NCC(=O)NCC(=O)NCC(=O)NCC(=O)NCC(=O)N[C@H](CCCNC(=N)N)C(=O)N[C@H](CCCCN)C(=O)N[C@H](CCCCN)C(=O)N[C@H](CCCNC(=N)N)C(=O)N[C@H](CCCNC(=N)N)C(=O)N[C@H](CCC(N)=O)C(=O)N[C@H](CCCNC(=N)N)C(=O)N[C@H](CCCNC(=N)N)C(=O)N[C@H](CCCNC(=N)N)C(=O)O [Aβ1-6A2V-TAT(D)] (H-[dD][dV][dE][dF][dR][dH]GGGGG[dR][dK][dK][dR][dR][dQ][dR][dR][dR]-OH; N-terminus assumed)
- Fraction of insoluble tau in P301L brain homogenate [1]: without affecting the fraction of insoluble tau
- Reversal of toxic effect of WT TBI brain homogenate in C. elegans [2]: completely reverted
- Susceptibility of tau to degradation by proteases [3]: increased the susceptibility of tau to degradation by proteases, and this was particularly evident in the presence of proteinase K
